This note sets out measurements from patent publication US20080021030A1, “Substituted Pyrazoles As Ppar Agonists” (priority 2003, published 2008).

One data set deals with T1, hPPAR gamma (Homo sapiens, UniProt P37231).
T1 construct: expressed in transfected cells; host or cells: CV-1 cells
T1 sequence (P37231 238-503 limits assumed): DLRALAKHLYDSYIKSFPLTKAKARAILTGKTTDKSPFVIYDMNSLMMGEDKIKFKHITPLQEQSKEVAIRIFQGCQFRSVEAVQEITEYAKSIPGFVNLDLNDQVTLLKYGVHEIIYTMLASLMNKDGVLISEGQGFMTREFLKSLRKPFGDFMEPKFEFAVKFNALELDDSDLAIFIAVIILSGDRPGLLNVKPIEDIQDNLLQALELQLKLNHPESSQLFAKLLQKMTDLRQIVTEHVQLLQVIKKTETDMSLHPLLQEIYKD
In words: Transient transfection (transactivation) assay in CV-1 cells, GAL4-PPAR LBD chimera, SPAP reporter. The class given is cell-based. Particulars: read-out: EC50 μM HPPARγ. An outline of the steps:
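CV-1 cells were transiently transfected with a GAL4 DBD–human PPARγ LBD chimera, a 5×GAL4-site SPAP reporter and β-galactosidase. After 16 h, the cells were exposed to compound in DME with 10% delipidated FCS for 24 h. Alkaline phosphatase and β-galactosidase activities were then measured in cell extracts.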

A further data set concerns the target T2, hPPAR alpha (Homo sapiens, UniProt Q07869).
T2 construct: expressed in transfected cells; host or cells: CV-1 cells
T2 sequence (Q07869 239-466 limits assumed): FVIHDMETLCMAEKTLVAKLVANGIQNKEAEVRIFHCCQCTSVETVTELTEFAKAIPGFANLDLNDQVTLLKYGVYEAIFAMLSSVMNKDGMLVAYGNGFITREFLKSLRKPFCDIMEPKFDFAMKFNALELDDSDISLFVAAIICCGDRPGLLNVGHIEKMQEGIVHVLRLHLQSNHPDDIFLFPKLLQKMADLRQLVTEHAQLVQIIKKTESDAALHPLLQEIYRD
In words: Transient transfection (transactivation) assay in CV-1 cells, GAL4-PPAR LBD chimera, SPAP reporter. The data set is classed as cell-based. Particulars: read-out: EC50 μM HPPARα. The method, boiled down:
(§1)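 CV-1 cells transiently co-transfected with GAL4 DBD–human PPAR LBD chimera plus 5×GAL4-site SPAP reporter and β-galactosidase; after 16 h, compound added in DME with 10% delipidated FCS for 24 h. SPAP activity normalised to β-galactosidase; values in μM.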

The next data set has as its target T3, hPPAR delta (Homo sapiens, UniProt Q03181).
T3 construct: expressed in transfected cells; host or cells: CV-1 cells
T3 sequence (Q03181 211-439 limits assumed): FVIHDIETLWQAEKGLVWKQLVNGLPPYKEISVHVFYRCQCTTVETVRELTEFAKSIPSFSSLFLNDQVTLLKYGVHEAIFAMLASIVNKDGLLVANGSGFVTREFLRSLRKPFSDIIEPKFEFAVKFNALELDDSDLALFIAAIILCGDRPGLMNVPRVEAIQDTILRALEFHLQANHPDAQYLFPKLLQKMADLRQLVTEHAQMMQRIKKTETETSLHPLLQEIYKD
The description is as above. The settings on record: read-out: EC50 μM HPPARδ. The class given is cell-based. An outline of the steps: as §1

Broadly, the EC50 is the concentration giving half of the maximal effect. For orientation: melting point means the temperature, or range, at which the solid turns liquid.

For `COCCn1nc(-c2ccc(C(C)(C)C)cc2)cc1C(=O)NCc1ccc(OC(C)(C)C(=O)O)c(C)c1` [Example 48, 2-[(4-{[({3-[4-(1,1-dimethylethyl)phenyl]-1-[2-(methyloxy)ethyl]-1H-pyrazol-5-yl}carbonyl)amino]methyl}-2-methylphenyl)oxy]-2-methylpropanoic acid], the melting point was found to be 112 °C. Further, the EC50 at hPPAR gamma was found to be 0.303 µM. Moreover, on hPPAR alpha, the EC50 was 0.066 µM. Moreover, the EC50 at hPPAR delta was found to be 2.05 µM.

`Cc1cc(CNC(=O)c2cc(-c3ccc(C(C)(C)C)cc3)nn2CC(=O)c2ccccc2)ccc1OC(C)(C)C(=O)O` [Example 49, 2-({4-[({[3-[4-(1,1-dimethylethyl)phenyl]-1-(2-oxo-2-phenylethyl)-1H-pyrazol-5-yl]carbonyl}amino)methyl]-2methylphenyl}oxy)-2-methylpropanoic acid] registered a melting point of 116 °C. Besides, the concentration for a half-maximal effect (EC50) on hPPAR gamma was 0.052 µM. For the same molecule, the EC50 on hPPAR alpha stood at 0.257 µM. Moreover, the EC50 at hPPAR delta stood at 1.17 µM.

The molecule `COCCn1nc(C(=O)NCc2ccc(OC(C)(C)C(=O)O)c(C)c2)cc1-c1ccc(C(C)(C)C)cc1` [Example 52, 2-[(4-{[({5-[4-(1,1-dimethylethyl)phenyl]-1-[2-(methyloxy)ethyl]-1H-pyrazol-3-yl}carbonyl)amino]methyl}-2-methylphenyl)oxy]-2-methylpropanoic acid] yielded a melting point of 65 °C. Besides, the EC50 at hPPAR gamma amounted to 0.478 µM. For the same molecule, the EC50 on hPPAR alpha was 0.042 µM. Also, on hPPAR delta, the EC50 was more than 25 µM.

In the case of `Cc1cc(CNC(=O)c2cc(-c3ccc(C(C)(C)C)cc3)[nH]n2)ccc1OC(C)(C)C(=O)O` [Example 53, 2-[(4-{[({5-[4-(1,1-dimethylethyl)phenyl]-1H-pyrazol-3-yl}carbonyl)amino]methyl}-2-methylphenyl)oxy]-2-methylpropanoic acid], the melting point worked out at 100 °C. On hPPAR gamma, the EC50 was found to be 0.269 µM. Further, the EC50 at hPPAR alpha is 0.383 µM. Besides, on hPPAR delta, the EC50 was more than 25 µM.

In the case of `C=CCOc1ccc(-c2cc(C(=O)NCc3ccc(OC(C)(C)C(=O)O)c(C)c3)n(C)n2)cc1` [Example 56, 2-methyl-2-[(2-methyl-4-{[({1-methyl-3-[4-(2-propen-1-yloxy)phenyl]-1H-pyrazol-5-yl}carbonyl)amino]methyl}phenyl)oxy]propanoic acid], the melting point was 70 °C. The EC50 at hPPAR gamma turned out to be 0.287 µM. Further, at hPPAR alpha, the EC50 worked out at 0.894 µM. Further, the EC50 on hPPAR delta is more than 25 µM.

For `Cc1cc(CNC(=O)c2cc(-c3ccc(OCc4ccccc4)cc3)nn2C)ccc1OC(C)(C)C(=O)O` [Example 57, 2-methyl-2-{[2-methyl-4-({[(1-methyl-3-{4-[(phenylmethyl)oxy]phenyl}-1H-pyrazol-5-yl)carbonyl]amino}methyl)phenyl]oxy}propanoic acid], the melting point came out at 72 °C. Moreover, the EC50 at hPPAR gamma was 0.118 µM. For the same molecule, the EC50 on hPPAR alpha was determined as 0.657 µM. Further, the EC50 at hPPAR delta was more than 8 µM.
